In ChEMBL document CHEMBL1201862, “PubChem BioAssay data set” (2004):
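Step 1: Grow cells in 96-well plates. Step 2: Expose to compound for 48 hours at 5 concentrations. Step 3: Interpolate endpoints linearly; if unreached, use highest concentration. Here, GI50 denotes the concentration required for 50% inhibition of growth.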 Calls of active or inactive are those of the source. Cut-off read from the data, not from the text of the source: active = GI50 up to about 1.1 µM and inactive = higher.

What was measured:
Test in all cases: inhibition of tumour cell growth, NCI panel, 48 h
786-0 = system: 786-0
A549 = system: A549
ACHN = system: ACHN
BT-549 = system: BT-549
CAKI-1 = system: CAKI-1
CCRF-CEM = system: CCRF-CEM
COLO 205 = system: COLO 205
DU-145 = system: DU-145
EKVX = system: EKVX
HCT-116 = system: HCT-116
HCT-15 = system: HCT-15
HL-60 = system: HL-60
HOP-62 = system: HOP-62
HOP-92 = system: HOP-92
HT-29 = system: HT-29
Hs-578T = system: Hs-578T
IGROV-1 = system: IGROV-1
K562 = system: K562
KM12 = system: KM12
LOX IMVI = system: LOX IMVI
M14 = system: M14
MDA-MB-231 = system: MDA-MB-231
MDA-MB-435 = system: MDA-MB-435
MDA-N = system: MDA-N
MOLT-4 = system: MOLT-4
Malme-3M = system: Malme-3M
NCI-H226 = system: NCI-H226
NCI-H23 = system: NCI-H23
NCI-H460 = system: NCI-H460
NCI-H522 = system: NCI-H522
NCI/ADR-RES = system: NCI/ADR-RES
OVCAR-3 = system: OVCAR-3
OVCAR-4 = system: OVCAR-4
OVCAR-5 = system: OVCAR-5
OVCAR-8 = system: OVCAR-8
PC-3 = system: PC-3
RXF 393 = system: RXF 393
SF-268 = system: SF-268
SF-295 = system: SF-295
SF-539 = system: SF-539
SK-MEL-28 = system: SK-MEL-28
SK-MEL-2 = system: SK-MEL-2
SK-MEL-5 = system: SK-MEL-5
SK-OV-3 = system: SK-OV-3
SN12C = system: SN12C
SNB-19 = system: SNB-19
SNB-75 = system: SNB-75
SW-620 = system: SW-620
T47D = system: T47D
TK-10 = system: TK-10
U-251 = system: U-251
UACC-257 = system: UACC-257
UACC-62 = system: UACC-62
UO-31 = system: UO-31
A498 = system: A498
HCC 2998 = system: HCC 2998
MCF7 = system: MCF7
RPMI-8226 = system: RPMI-8226
SR = system: SR

Measured: GI50

O=S(=O)(/N=C(\NO)Nc1ccc(Cl)cc1)c1cccc2nsnc12
18.3 µM: HCT-15
inactive: 786-0 21.6 µM | A549 45.5 µM | ACHN 34.4 µM | BT-549 28.6 µM | CAKI-1 12.9 µM | CCRF-CEM 26.1 µM | COLO 205 32.4 µM | DU-145 41.3 µM | EKVX 26.2 µM | HCT-116 32 µM | HL-60 13.4 µM | HOP-62 > 100 µM | HOP-92 22.1 µM | HT-29 39.2 µM | Hs-578T 29.2 µM | IGROV-1 28.1 µM | K562 19.7 µM | KM12 31 µM | LOX IMVI 20.3 µM | M14 35.4 µM | MDA-MB-231 77.1 µM | MDA-MB-435 23 µM | MDA-N 54.1 µM | MOLT-4 12.8 µM | Malme-3M 21.2 µM | NCI-H226 81.1 µM | NCI-H23 45.2 µM | NCI-H460 38.7 µM | NCI-H522 11 µM | NCI/ADR-RES 46 µM | OVCAR-3 18.7 µM | OVCAR-4 13.7 µM | OVCAR-5 26.9 µM | OVCAR-8 34.3 µM | PC-3 30.3 µM | RXF 393 19.6 µM | SF-268 34.4 µM | SF-295 57.9 µM | SF-539 59.3 µM | SK-MEL-28 18.7 µM | SK-MEL-2 16.4 µM | SK-MEL-5 14.8 µM | SK-OV-3 76.2 µM | SN12C 21.9 µM | SNB-19 94.4 µM | SNB-75 31.8 µM | SW-620 31.8 µM | T47D 48.1 µM | TK-10 55.7 µM | U-251 31.6 µM | UACC-257 31 µM | UACC-62 21.6 µM | UO-31 65.2 µM

CCOP(=O)(OCC)C(Nc1ccc(F)cc1)c1cccc([N+](=O)[O-])c1 (configuration not stated)
inactive: 786-0 > 10 µM | A498 > 100 µM | A549 58.7 µM | ACHN > 100 µM | BT-549 89.3 µM | CAKI-1 > 100 µM | CCRF-CEM 62.4 µM | COLO 205 70.5 µM | DU-145 > 100 µM | EKVX 90.4 µM | HCC 2998 71.6 µM | HCT-116 46.8 µM | HL-60 41.3 µM | HOP-62 > 100 µM | HOP-92 37.9 µM | HT-29 74.6 µM | Hs-578T 82.8 µM | IGROV-1 78.9 µM | K562 38.9 µM | KM12 94 µM | LOX IMVI > 100 µM | M14 79.1 µM | MCF7 > 100 µM | MDA-MB-231 71.9 µM | MDA-MB-435 > 100 µM | MDA-N > 100 µM | MOLT-4 37.2 µM | Malme-3M 83.8 µM | NCI-H226 > 100 µM | NCI-H23 > 100 µM | NCI-H460 65.9 µM | NCI-H522 63.1 µM | NCI/ADR-RES 47.1 µM | OVCAR-3 > 100 µM | OVCAR-4 57.4 µM | OVCAR-5 > 100 µM | OVCAR-8 97.9 µM | PC-3 67.5 µM | RPMI-8226 76.9 µM | RXF 393 54.3 µM | SF-268 > 100 µM | SF-295 > 100 µM | SF-539 > 100 µM | SK-MEL-28 > 100 µM | SK-MEL-2 49.7 µM | SK-MEL-5 83.9 µM | SK-OV-3 > 100 µM | SN12C > 100 µM | SNB-19 > 100 µM | SNB-75 > 100 µM | SR 93.5 µM | SW-620 > 100 µM | TK-10 > 100 µM | U-251 > 100 µM | UACC-257 > 100 µM | UACC-62 54.8 µM | UO-31 40.6 µM
83.8 µM: HCT-15
